Test results from ChEMBL document CHEMBL1201862, “PubChem BioAssay data set” (2004).
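Dose response: 5 concentrations. Exposure: 48 h. Format: 96-well plates. Endpoint: linear interpolation; highest concentration if not reached. GI50 marks 50% less growth.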 Active and inactive are the calls of the source. Rule as the data show it: active = GI50 up to about 1.1 µM and inactive = higher.

Tests used:
Test in all cases: growth of human tumour cells (NCI), 48 h
BT-549 = system: BT-549
SF-295 = system: SF-295
NCI-H522 = system: NCI-H522
RPMI-8226 = system: RPMI-8226
NCI-H23 = system: NCI-H23
MDA-MB-231 = system: MDA-MB-231
SF-268 = system: SF-268
SK-OV-3 = system: SK-OV-3
SW-620 = system: SW-620
OVCAR-8 = system: OVCAR-8
A498 = system: A498
CCRF-CEM = system: CCRF-CEM
HCT-15 = system: HCT-15
U-251 = system: U-251
NCI-H460 = system: NCI-H460
HCT-116 = system: HCT-116
MCF7 = system: MCF7
UO-31 = system: UO-31
SNB-75 = system: SNB-75

Structure (SMILES)	GI50 (BT-549)	GI50 (SF-295)	GI50 (NCI-H522)	GI50 (RPMI-8226)	GI50 (NCI-H23)	GI50 (MDA-MB-231)	GI50 (SF-268)	GI50 (SK-OV-3)	GI50 (SW-620)	GI50 (OVCAR-8)	GI50 (A498)	GI50 (CCRF-CEM)	GI50 (HCT-15)	GI50 (U-251)	GI50 (NCI-H460)	GI50 (HCT-116)	GI50 (MCF7)	GI50 (UO-31)	GI50 (SNB-75)
COc1cccc2c(Nc3ccc(S(=O)(=O)N=C(N)N)cc3)c3ccc([N+](=O)[O-])cc3nc12	13.6 µM (inactive)	29.4 µM (inactive)	6.71 µM (inactive)	8.05 µM (inactive)	14.7 µM (inactive)	2.34 µM (inactive)	5.62 µM (inactive)	28.6 µM (inactive)	16.7 µM (inactive)	15.7 µM (inactive)	19.1 µM (inactive)	2.38 µM (inactive)	30 µM	5.61 µM (inactive)	4.32 µM (inactive)	16.6 µM (inactive)	4.09 µM (inactive)	16.3 µM (inactive)	–
N#CC1C(=O)Nc2sc(C(=O)c3ccc(Br)cc3)c(N)c2C12CCCCC2 (stereo not given)	27.9 µM (inactive)	30.5 µM (inactive)	18.3 µM (inactive)	19.9 µM (inactive)	25 µM (inactive)	23 µM (inactive)	22.7 µM (inactive)	46.3 µM (inactive)	16.6 µM (inactive)	39.8 µM (inactive)	20.1 µM (inactive)	29 µM (inactive)	16 µM	25.1 µM (inactive)	28.2 µM (inactive)	15.8 µM (inactive)	16.5 µM (inactive)	16.8 µM (inactive)	33.1 µM (inactive)
CCOC(=O)c1cc(C)nc2c1c(=O)n(-c1ccccc1)c(=O)n2CCCCN1CCN(c2ncccn2)CC1	45.1 µM (inactive)	> 100 µM (inactive)	> 100 µM (inactive)	23.8 µM (inactive)	> 100 µM (inactive)	80.7 µM (inactive)	> 100 µM (inactive)	> 100 µM (inactive)	> 100 µM (inactive)	> 100 µM (inactive)	20.8 µM (inactive)	31.8 µM (inactive)	–	> 100 µM (inactive)	–	85.5 µM (inactive)	> 100 µM (inactive)	38.5 µM (inactive)	59 µM (inactive)
c1cnc(N2CCN(Cc3c[nH]c4ccccc34)CC2)nc1	42.1 µM (inactive)	38.3 µM (inactive)	> 100 µM (inactive)	11.7 µM (inactive)	93.5 µM (inactive)	37.2 µM (inactive)	74.5 µM (inactive)	> 100 µM (inactive)	> 100 µM (inactive)	95.9 µM (inactive)	28.7 µM (inactive)	50.1 µM (inactive)	72.9 µM	37.1 µM (inactive)	31.3 µM (inactive)	26.2 µM (inactive)	16.9 µM (inactive)	38.5 µM (inactive)	89.9 µM (inactive)
N#Cc1cc2c(n(C3OC(CO)C(O)C(O)C3O)c1=S)CCCCCC2 (stereo not given)	> 100 µM (inactive)	> 100 µM (inactive)	> 100 µM (inactive)	> 100 µM (inactive)	> 100 µM (inactive)	> 100 µM (inactive)	> 100 µM (inactive)	–	> 100 µM (inactive)	> 100 µM (inactive)	> 100 µM (inactive)	> 100 µM (inactive)	> 100 µM	> 100 µM (inactive)	> 100 µM (inactive)	> 100 µM (inactive)	> 100 µM (inactive)	> 100 µM (inactive)	> 100 µM (inactive)
COc1ccc(N2C(=O)C3c4[nH]c5ccc(OCc6ccccc6)cc5c4C4CCC(C(C)(C)C)CC4C3C2=O)cc1 (stereo not given)	> 100 µM (inactive)	> 100 µM (inactive)	> 100 µM (inactive)	> 100 µM (inactive)	> 100 µM (inactive)	53.2 µM (inactive)	> 100 µM (inactive)	> 100 µM (inactive)	94.6 µM (inactive)	46.3 µM (inactive)	> 100 µM (inactive)	–	> 100 µM	27.1 µM (inactive)	> 100 µM (inactive)	42.4 µM (inactive)	85.3 µM (inactive)	–	–
O=C1CSC(c2ccccc2)N1c1ccc(-c2ccc(-n3c(-c4ccccc4)nc4ccccc4c3=O)cc2)cc1 (stereo not given)	43.3 µM (inactive)	64.3 µM (inactive)	47.8 µM (inactive)	36.8 µM (inactive)	57.1 µM (inactive)	40.9 µM (inactive)	49.4 µM (inactive)	> 100 µM (inactive)	97.7 µM (inactive)	44.4 µM (inactive)	> 100 µM (inactive)	37.2 µM (inactive)	29.2 µM	56.9 µM (inactive)	46 µM (inactive)	–	35.1 µM (inactive)	49.8 µM (inactive)	–
COC1=C2C=[N+](C)C3C(=C2C=CC1OC)Cc1cc2c(cc13)OCO2 (stereo not given)	12.7 µM (inactive)	15.3 µM (inactive)	4.32 µM (inactive)	2.53 µM (inactive)	13 µM (inactive)	14.6 µM (inactive)	3.8 µM (inactive)	15.1 µM (inactive)	26.2 µM (inactive)	22 µM (inactive)	43.5 µM (inactive)	6.37 µM (inactive)	17.7 µM	9.42 µM (inactive)	–	13.8 µM (inactive)	9.77 µM (inactive)	13.7 µM (inactive)	14.8 µM (inactive)
Sc1nn2c(COc3cc(Cl)c(OCc4nnc5sc(S)nn45)cc3Cl)nnc2s1	32.7 µM (inactive)	> 100 µM (inactive)	20.1 µM (inactive)	32.4 µM (inactive)	> 100 µM (inactive)	> 100 µM (inactive)	44.6 µM (inactive)	> 100 µM (inactive)	30.3 µM (inactive)	88.5 µM (inactive)	> 100 µM (inactive)	–	33.1 µM	> 100 µM (inactive)	> 100 µM (inactive)	46 µM (inactive)	18.2 µM (inactive)	31.3 µM (inactive)	82 µM (inactive)
C[C@]12CC[C@H](O)CC1=CC[C@@H]1[C@@H]2CC[C@]2(C)/C(=N/OCCN3CCCC3)CC[C@@H]12	16.3 µM (inactive)	19.4 µM (inactive)	13 µM (inactive)	15.2 µM (inactive)	14.1 µM (inactive)	19.9 µM (inactive)	53.2 µM (inactive)	–	16.4 µM (inactive)	16.3 µM (inactive)	16 µM (inactive)	–	12.1 µM	17.5 µM (inactive)	12 µM (inactive)	14.9 µM (inactive)	19.1 µM (inactive)	16.7 µM (inactive)	19.3 µM (inactive)
C=CCCCC1(C)CCNC1=S (stereo not given)	> 100 µM (inactive)	> 100 µM (inactive)	> 100 µM (inactive)	> 100 µM (inactive)	> 100 µM (inactive)	> 100 µM (inactive)	> 100 µM (inactive)	> 100 µM (inactive)	> 100 µM (inactive)	> 100 µM (inactive)	> 100 µM (inactive)	–	> 100 µM	> 100 µM (inactive)	> 100 µM (inactive)	> 100 µM (inactive)	> 100 µM (inactive)	> 100 µM (inactive)	> 100 µM (inactive)
